What was measured:
[1] = type: physicochemical
Experimental: In addition to examination of solutions for clarity, aged samples (2 months@ 25° C.) were examined chromatographically for degradation.
In order to elucidate possible degradation components, solutions of active components were subjected to forced degradation conditions of acid, base, and peroxide at elevated temperature.
Samples containing ivermectin and clorsulon were prepared in acetonitrile and subjected to acid (a few drops of phosphoric acid), alkaline (a few drops of 1N sodium hydroxide) and peroxide (a small amount of t-butyl peroxide or hydrogen peroxide) degradation conditions. Samples were first analyzed for signs of degradation after a few days at ambient temperature. If, after this time there were no signs of degradation the samples were further ‘stressed’ by storage at 40° C.

[2] = Preliminary stability of Table 3 formulations at 50° C.; type: physicochemical; conditions: addition of glycerol formal
Experimental: Larger batches (100 mL) of formulations were made for use in preliminary stability studies.
Eprinomectin was also included in the formulation studies at the same end product concentration as ivermectin (0.5% w/v). The formulations shown in Table 3 were monitored for stability.
In order to evaluate the stability of formulations, analytical methods (described below) were developed to assay each active ingredient and monitor any degradation.
This HPLC assay was developed as an external standardization method which involves volumetric dilution of an accurately weighed amount of standard material and sample. The chromatographic method comprises an isocratic elution and detection of analyte components using the run parameters below: […]

Row | Compound | Relative stability of the two active compounds [1] | Stabilization of eprinomectin in formulation [2]
1 | Nc1cc(C(Cl)=C(Cl)Cl)c(S(N)(=O)=O)cc1S(N)(=O)=O [clorsulon, 4-amino-6-trichloroethenyl-1,3-benzene disulfonamide] | more stable | –
2 | eprinomectin | – | stabilized by the addition of glycerol formal

Source: patent US8097266B2, “Solvent systems for pour-on formulations for combating parasites” (Merial Limited, priority 2007, dated 2012)
